Assays:
[1] = target: DGKζ (Homo sapiens (Human), UniProt Q13574); assay: In vitro DGKζ inhibition assay (ADP-Glo); assay type: biochemical; conditions: His-tagged human recombinant enzyme, 0.4 nM DGK, 30 μM ATP, 20 μM DLG, 90 minute incubation
Description: (§1) The DGKα and DGKξ biochemical reactions were performed using His-tagged human recombinant enzymes (Signal Chem, DGKα, #D21-1OBH; DGKξ, #D30-10H)) and DLG (Dilauroyl-sn-glycerol) lipid substrate (Signal Chem, #D430-59). ADP-Glo assay was performed using ADP-Glog™ kinase Assay kit (Promega, #V9104). The reactions were carried out in assay buffer containing 40 mM Tris, pH 7.5, 0.1% CHAPS, 0.1% Prionex, 40 mM NaCl, 5 mM MgCl2, 1 mM CaCl2, and 1 mM DTT. DGKα reactions contained 0.1 nM DGKα, 50 μM ATP, and 20 μM DLG. And DGKC reactions contained 0.4 nM DGK, 30 μM ATP, and 20 μM DLG.
(§2) For compound inhibition studies, 40 nL test compound in DMSO was added to wells of white polystyrene plates in 384-well (Greiner, #784075) or 1536-well format (Greiner, #782075). Compounds were added with top concentration of 2 mM with 11 point, 3-fold dilution series. Enzyme solution (contains 2×DGK enzyme concentration in Ix assay buffer) was added to the plate in 2 μL/well volume, followed by 2 μL/well of substrate solution (contains 2×concentration of ATP and DLG substrate in Ix assay buffer). Plates were then centrifuged for 1 min at 1200 RPM and sealed or lidded. For 4 μL reaction volume, test compounds were therefore diluted 100× to final top concentration of 20 μM. After 90 minute incubation, reactions were quenched by addition of 2 μL/well Promega ADP-Glo Reagent, followed by centrifugation and lidding. After 60 min incubation, 2 μL/well Promega Kinase Detection Reagent was added, plates centrifuged, and incubated for 30 min. Plates were then read using Luminescence method on BMG PHERAstar FSX plate reader. Percent inhibition was calculated and IC50s were determined using 4-parameter fit in Genedata Screener. Labcyte Echo acoustic dispenser was used for compound addition, and Formulatrix Tempest liquid handler was used for all reagent dispenses.

[2] = target: DGKα (Homo sapiens (Human), UniProt P23743); assay: In vitro DGKα inhibition assay (ADP-Glo); assay type: biochemical; conditions: His-tagged human recombinant enzyme, 0.1 nM DGKα, 50 μM ATP, 20 μM DLG, 90 minute incubation
Description: as §1, §2

Chain of DGKα (P23743 whole entry): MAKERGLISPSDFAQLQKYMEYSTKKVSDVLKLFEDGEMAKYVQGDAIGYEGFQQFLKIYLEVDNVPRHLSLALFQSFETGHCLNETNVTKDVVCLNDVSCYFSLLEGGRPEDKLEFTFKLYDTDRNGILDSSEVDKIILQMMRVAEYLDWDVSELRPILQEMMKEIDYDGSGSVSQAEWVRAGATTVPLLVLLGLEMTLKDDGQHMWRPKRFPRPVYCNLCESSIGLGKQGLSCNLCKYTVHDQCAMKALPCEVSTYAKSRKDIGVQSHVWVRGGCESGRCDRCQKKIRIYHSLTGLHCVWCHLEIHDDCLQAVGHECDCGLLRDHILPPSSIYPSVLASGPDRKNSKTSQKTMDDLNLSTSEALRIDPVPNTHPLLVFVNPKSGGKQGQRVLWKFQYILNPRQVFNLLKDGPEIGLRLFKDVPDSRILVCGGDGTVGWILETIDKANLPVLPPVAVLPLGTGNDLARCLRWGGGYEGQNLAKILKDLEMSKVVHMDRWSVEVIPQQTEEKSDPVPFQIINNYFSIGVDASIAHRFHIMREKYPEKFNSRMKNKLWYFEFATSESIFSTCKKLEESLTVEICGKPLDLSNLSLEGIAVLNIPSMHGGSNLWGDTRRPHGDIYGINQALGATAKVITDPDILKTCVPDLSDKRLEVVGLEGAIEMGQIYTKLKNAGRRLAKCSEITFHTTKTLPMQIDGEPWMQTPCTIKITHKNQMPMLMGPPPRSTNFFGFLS
Chain of DGKζ (Q13574 whole entry): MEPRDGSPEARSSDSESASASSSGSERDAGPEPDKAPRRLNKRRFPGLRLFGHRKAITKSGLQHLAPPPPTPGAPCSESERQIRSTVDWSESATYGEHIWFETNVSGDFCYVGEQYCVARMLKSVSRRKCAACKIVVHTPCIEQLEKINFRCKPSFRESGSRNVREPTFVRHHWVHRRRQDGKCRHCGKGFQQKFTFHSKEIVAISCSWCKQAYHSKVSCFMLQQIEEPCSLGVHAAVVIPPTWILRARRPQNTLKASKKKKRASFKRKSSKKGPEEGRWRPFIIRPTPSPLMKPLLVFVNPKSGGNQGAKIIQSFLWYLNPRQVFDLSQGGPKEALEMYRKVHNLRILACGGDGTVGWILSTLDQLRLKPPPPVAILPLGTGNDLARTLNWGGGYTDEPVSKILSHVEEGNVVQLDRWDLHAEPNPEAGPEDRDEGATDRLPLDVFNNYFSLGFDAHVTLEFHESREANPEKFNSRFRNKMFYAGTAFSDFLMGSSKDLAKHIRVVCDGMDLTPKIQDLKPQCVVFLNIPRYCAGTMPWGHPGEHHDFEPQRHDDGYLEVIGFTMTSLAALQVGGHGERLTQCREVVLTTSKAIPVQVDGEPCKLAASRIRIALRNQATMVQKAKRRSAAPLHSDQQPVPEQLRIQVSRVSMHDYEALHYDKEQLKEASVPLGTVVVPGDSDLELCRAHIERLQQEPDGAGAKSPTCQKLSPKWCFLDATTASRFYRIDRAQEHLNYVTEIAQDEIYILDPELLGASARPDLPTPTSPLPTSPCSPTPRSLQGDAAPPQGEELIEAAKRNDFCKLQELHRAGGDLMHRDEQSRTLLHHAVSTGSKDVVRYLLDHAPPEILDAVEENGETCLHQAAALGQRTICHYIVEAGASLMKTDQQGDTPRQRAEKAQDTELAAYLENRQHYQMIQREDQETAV

Compound	IC50 [1] [nM]	IC50 [2] [nM]
C[C@@H]1CN(c2nc3nncn3c3sc(CCC#N)nc23)[C@@H](C)CN1C(c1ccc(F)cc1)c1ccc(F)cc1 [Example 4, 3-(4-((2S,5R)-4-(Bis(4-fluorophenyl)methyl)-2,5-dimethylpiperazin-1-yl)thiazolo[4,5-e][1,2,4]triazolo[4,3-a]pyrimidin-2-yl)propanenitrile]	200 to 2000	≤ 20
C[C@@H]1CN(c2nc3nncn3c3sc(-c4cn[nH]c4)nc23)[C@@H](C)CN1C(c1ccc(F)cc1)c1ccc(F)cc1 [Example 5, 4-((2S,5R)-4-(Bis(4-fluorophenyl)methyl)-2,5-dimethylpiperazin-1-yl)-2-(1H-pyrazol-4-yl)thiazolo[4,5-e][1,2,4]triazolo[4,3-a]pyrimidine]	> 2000	≤ 20
C[C@@H]1CN(c2nc3nncn3c3c2cnn3C)[C@@H](C)CN1C(c1ccc(F)cc1)c1ccc(F)cc1 [Example 6, 4-((2S,5R)-4-(Bis(4-fluorophenyl)methyl)-2,5-dimethylpiperazin-1-yl)-1-methyl-1H-pyrazolo[4,3-e][1,2,4]triazolo[4,3-a]pyrimidine]	> 2000	≤ 20
C[C@@H]1CN(c2nc3nncn3c3ccoc23)[C@@H](C)CN1C(c1ccc(F)cc1)c1ccc(F)cc1 [Example 7, 5-((2S,5R)-4-(Bis(4-fluorophenyl)methyl)-2,5-dimethylpiperazin-1-yl)furo[2,3-e][1,2,4]triazolo[4,3-a]pyrimidine]	> 2000	≤ 20
CCn1ccc2c1c(N1C[C@@H](C)N(C(c3ccc(F)cc3)c3ccc(F)cc3)C[C@@H]1C)nc1nncn12 [Example 10, 5-((2S,5R)-4-(Bis(4-fluorophenyl)methyl)-2,5-dimethylpiperazin-1-yl)-6-ethyl-6H-pyrrolo[2,3-e][1,2,4]triazolo[4,3-a]pyrimidine]	> 2000	≤ 20
C[C@@H]1CN(c2cc3nncn3c3ccsc23)[C@@H](C)CN1C(c1ccc(F)cc1)c1ccc(F)cc1 [Example 11, 5-((2S,5R)-4-(Bis(4-fluorophenyl)methyl)-2,5-dimethylpiperazin-1-yl)thieno[2,3-e][1,2,4]triazolo[4,3-a]pyridine]	> 2000	≤ 20
Cc1nn(C)c2c1c(N1C[C@@H](C)N(C(c3ccc(F)cc3)c3ccc(F)cc3)C[C@@H]1C)cc1nncn12 [Example 12, 4-((2S,5R)-4-(Bis(4-fluorophenyl)methyl)-2,5-dimethylpiperazin-1-yl)-1,3-dimethyl-1H-pyrazolo[4,3-e][1,2,4]triazolo[4,3-a]pyridine]	> 2000	≤ 20
COC[C@@H]1CN(c2nc3nncn3c3scnc23)[C@@H](C)CN1C(c1ccc(F)cc1)c1ccc(F)cc1 [Example 13, 4-((2S,5S)-4-(Bis(4-fluorophenyl)methyl)-5-(methoxymethyl)-2-methylpiperazin-1-yl)thiazolo[4,5-e][1,2,4]triazolo[4,3-a]pyrimidine]	20 to 200	≤ 20
C[C@H]1CN(C(c2ccc(F)cc2)c2ccc(F)cc2)[C@H](CC#N)CN1c1nc2nncn2c2scnc12 [Example 14, 2-((2R,5S)-1-(Bis(4-fluorophenyl)methyl)-5-methyl-4-(thiazolo[4,5-e][1,2,4]triazolo[4,3-a]pyrimidin-4-yl)piperazin-2-yl)acetonitrile]	≤ 20	≤ 20
C[C@H]1CN(C(c2ccc(F)cc2)c2ccc(F)cc2)[C@H](CC#N)CN1c1nc2nnc(C3CC3)n2c2scnc12 [Example 15, 2-((2R,5S)-1-(Bis(4-fluorophenyl)methyl)-4-(8-cyclopropylthiazolo[4,5-e][1,2,4]triazolo[4,3-a]pyrimidin-4-yl)-5-methylpiperazin-2-yl)acetonitrile]	≤ 20	20 to 200
C[C@H]1CN(C(c2ccc(F)cc2)c2ccc(F)cc2)[C@H](CC#N)CN1c1nc2nncn2c2c1ncn2C [Example 16, 2-((2R,5S)-1-(Bis(4-fluorophenyl)methyl)-5-methyl-4-(1-methyl-1H-[1,2,4]triazolo[3,4-b]purin-4-yl)piperazin-2-yl)acetonitrile]	≤ 20	≤ 20
N#CCC[C@@H]1CN(c2nc3nncn3c3scnc23)CCN1C(c1ccc(F)cc1)c1ccc(F)cc1 [Example 17, (R)-3-(1-(Bis(4-fluorophenyl)methyl)-4-(thiazolo[4,5-e][1,2,4]triazolo[4,3-a]pyrimidin-4-yl)piperazin-2-yl)propanenitrile]	20 to 200	≤ 20
C[C@@H]1CN(c2nc3nncn3c3c2ncn3CC2CC2)[C@@H](C)CN1C(c1ccc(F)cc1)c1ccc(F)cc1 [Example 18, 4-((2S,5R)-4-(Bis(4-fluorophenyl)methyl)-2,5-dimethylpiperazin-1-yl)-1-(cyclopropylmethyl)-1H-[1,2,4]triazolo[3,4-b]purine]	≤ 20	≤ 20
Cc1nc2c(N3C[C@@H](C)N(C(c4ccc(F)cc4)c4ccc(F)cc4)C[C@@H]3C)nc3nncn3c2n1C[C@@H]1CCCO1 [Example 19, 4-((2S,5R)-4-(Bis(4-fluorophenyl)methyl)-2,5-dimethylpiperazin-1-yl)-2-methyl-1-(((S)-tetrahydrofuran-2-yl)methyl)-1H-[1,2,4]triazolo[3,4-b]purine]	≤ 20	≤ 20
CC[C@@H]1CN(c2nc3nncn3c3c2nc(C)n3C[C@@H]2CCCO2)[C@@H](C)CN1C(c1ccc(F)cc1)c1ccc(F)cc1 [Example 20, 4-((2S,5R)-4-(Bis(4-fluorophenyl)methyl)-5-ethyl-2-methylpiperazin-1-yl)-2-methyl-1-(((S)-tetrahydrofuran-2-yl)methyl)-1H-[1,2,4]triazolo[3,4-b]purine]	≤ 20	≤ 20
CC[C@H]1CN(C(c2ccc(F)cc2)c2ccc(F)cc2)[C@H](CC)CN1c1nc2nncn2c2c1ncn2CC1CC1 [Example 21, 4-((2S,5R)-4-(Bis(4-fluorophenyl)methyl)-2,5-diethylpiperazin-1-yl)-1-(cyclopropylmethyl)-1H-[1,2,4]triazolo[3,4-b]purine]	≤ 20	≤ 20
CC(C)[C@@H](c1ccc(F)cc1)N1C[C@H](C)N(c2nc3nncn3c3c2ncn3CC2CC2)C[C@H]1C [Example 22, 1-(Cyclopropylmethyl)-4-((2S,5R)-4-((S)-1-(4-fluorophenyl)-2-methylpropyl)-2,5-dimethylpiperazin-1-yl)-1H-[1,2,4]triazolo[3,4-b]purine]	≤ 20	≤ 20
CC(C)[C@H](c1ccc(F)cc1)N1C[C@H](C)N(c2nc3nncn3c3c2ncn3CC2CC2)C[C@H]1C [Example 23, 1-(cyclopropylmethyl)-4-((2S,5R)-4-((R)-1-(4-fluorophenyl)-2-methylpropyl)-2,5-dimethylpiperazin-1-yl)-1H-[1,2,4]triazolo[3,4-b]purine]	≤ 20	≤ 20
C[C@@H]1CN(c2nc3nncn3c3c2ncn3CC2CC2)[C@@H](C)CN1[C@@H](c1ccc(F)cc1)c1ccc(OC(F)(F)F)cn1 [Example 24, 1-(Cyclopropylmethyl)-4-((2S,5R)-4-((S)-(4-fluorophenyl)(5-(trifluoromethoxy)pyridin-2-yl)methyl)-2,5-dimethylpiperazin-1-yl)-1H-[1,2,4]triazolo[3,4-b]purine]	≤ 20	≤ 20

From US20230399342A1 (Incyte Corporation, priority 2022, published 2023)
